Measurements published in publication PMC11997989, “Design of Novel Mercapto-3-phenylpropanoyl Dipeptides as Dual Angiotensin-Converting Enzyme C–Domain-Selective/Neprilysin Inhibitors” (Journal of Medicinal Chemistry, 2025).

How the values were obtained:
cACE [1] = biological target: T1, cACE (Homo sapiens, UniProt P12821); assay: Jump dilution assay, cACE; assay type: biochemical; settings: 15 min pre-incubation, 20-fold dilution, activity immediately and ~3 h later, 1 mM Z-FHL
T1 construct: using purified recombinant single domain human ACE proteins and the human NEP ectodomain as previously described; made in house
Method: (§1) Figure S2: Jump dilution experiment forAD016. A) Enzyme and inhibitor were pre-incubated for 15 min and then an aliquot of each was removed and diluted 20-fold in assay buffer. Activity assays were performed on both the undiluted (A and C) and diluted (B and D) enzyme-inhibitor mixes immediately and ~3h. later. Reaction was initiated with Z-FHL substrate (1mM final concentration). Final enzyme and inhibitor concentrations are […]
(§2) The Morrison equation was fitted to the same data but gave a poor fit when Et was constrained to the enzyme concentration used in the assay and an unrealistic Et if this value was left unconstrained (Figure S3 C & D). The obvious explanation for the high Et predicted by the model is that the inhibitor concentration is much lower than […]
(§3) the nACE data would imply the inhibitor concentration is ~350-fold lower than expected while the cACE data implies it is 40-fold lower than expected. The same inhibitor dilution series was […]
(§4) (1 picture or pasted object on this page, not shown here)
(§5) Figure S4: Morrison plots for the inhibition of cACE by compound AD016. Two assays with carried out in parallel. One using 1nM final enzyme concentration and the other using 5-fold less (0.2nM). The model was fitted without constraining the Et. The Et predicted from data set using the Morrison equation is indicated on the graph. […]

nACE [2] = biological target: T2, nACE (Homo sapiens, UniProt P12821); assay: Jump dilution assay, nACE; assay type: biochemical; settings: 15 min pre-incubation, 20-fold dilution, activity immediately and ~3 h later, 1 mM Z-FHL
T2 construct: using purified recombinant single domain human ACE proteins and the human NEP ectodomain as previously described; made in house
Method: as §1, §2, §3, §4, §5

cACE [3] = biological target: T1, cACE; assay: ACE inhibition assay, cACE (fluorogenic end point, Z-FHL); assay type: biochemical; settings: for C-selectivity factor: nACE IC50/cACE IC50; for IC50: ~1 nM cACE, 0.5 mM Z-FHL, mean ± standard error, n ≥ 2
From the text: (§6) For an accurate comparison of the inhibitor potencies across different enzymes and substrates, it is preferable to determine inhibition constants (Ki values). […] In the case of these new analogues, it was more challenging to accurately determine Ki values that could reliably be used to determine selectivity. […] This highlights the challenges in extrapolating data from in vitro assays to predict in vivo selectivity between targets. Furthermore, while comparing Ki values (assuming they can be accurately determined in vitro using available kinetic models) provides information on the relative binding affinities in the absence of substrate, in vivo the extent of enzyme inhibition will be affected by the relative concentrations and affinities of the physiological substrates competing for the binding sites. Given that accurate Ki values could not be calculated in a consistent manner for all compound-enzyme combinations, IC50 values are reported (Table 1).
(§7) Purified fully glycosylated human cACE and nACE proteins[36],[37] were used in fluorogenic end point activity assays utilizing Cbz-Phe-His-Leu (Z-FHL, Bachem Ltd., nACE Km = 600 μM; cACE Km = 60 μM) as the substrate as previously described.[32] Final reactions contained ∼1 nM nACE/cACE and 0.5 mM Z-FHL.

nACE [4] = biological target: T2, nACE; assay: ACE inhibition assay, nACE (fluorogenic end point, Z-FHL); assay type: biochemical; settings: for IC50: ~1 nM nACE, 0.5 mM Z-FHL, mean ± standard error, n ≥ 2; for reduction in affinity for nACE compared to omapatrilat: factor, from IC50 values
From the text: as §6, §7

cACE [5] = biological target: T1, cACE; assay: Michaelis-Menten inhibition kinetics (mode of inhibition), cACE; assay type: biochemical; settings: enzyme and inhibitor pre-incubated 15 min; best-fitting model
Method: (§8) page 9: curve. […] The apparent […]) obtained from this equation can then be converted to K i as for an IC50 value using Equation 1 provided the substrate competes with the inhibitor for the active site. (Et [[…] = V0(1 - i i ) Eq 2 2Et Where Vo is activity in absence of inhibitor, Vi is activity in presence of inhibitor, [I] is inhibitor concentration and Et is total enzyme concentration. Due to the slow binding of many protease inhibitors, inhibitors are typically pre-incubated with the enzyme prior to the addition of substrate to ensure that inhibition constants are measured under steady-state conditions. Accordingly, if an inhibitor forms a very tight complex with the enzyme resulting in a very slow off-rate, the inhibitor may not dissociate in the time of the experiment. Determining the Ki values for the mercaptoacyl inhibitors was challenging due to the chemical instability of the thiol group (although this was controlled by making up fresh stock before each experiment and diluting them immediately), the high potency, and the slow off rates observed in some cases, particularly for cACE. […] This is exemplified by the data for AD016. […] The K i values for the cACE determined in from this model were also inconsistent and were influence by the amount of enzyme used to the assay, again indicative of tight-binding conditions (Figure S1 C and D). […]

human NEP ectodomain [6] = biological target: T3, human NEP ectodomain (Homo sapiens, UniProt P08473); assay: NEP inhibition assay (continuous fluorogenic activity assay); assay type: biochemical; settings: for IC50: 0.4 nM NEP, mean ± standard error, n ≥ 2
T3 construct: A purified human NEP ectodomain was used in continuous activity assays; made in house
From the text: Furthermore, while comparing Ki values (assuming they can be accurately determined in vitro using available kinetic models) provides information on the relative binding affinities in the absence of substrate, in vivo the extent of enzyme inhibition will be affected by the relative concentrations and affinities of the physiological substrates competing for the binding sites.

nACE [7] = biological target: T2, nACE; assay: Michaelis-Menten inhibition kinetics (mode of inhibition), nACE; assay type: biochemical; settings: enzyme and inhibitor pre-incubated 15 min; best-fitting model
Method: as §8

NEP = biological target: T4, NEP (Homo sapiens, UniProt P08473); assay: Michaelis-Menten inhibition kinetics (mode of inhibition), NEP; assay type: biochemical; settings: enzyme and inhibitor pre-incubated 15 min; best-fitting model
T4 construct: A purified human NEP ectodomain was used in continuous activity assays; made in house

human NEP ectodomain [8] = biological target: T3, human NEP ectodomain; set-up: method as in PMID 35113565; settings: stated in discussion, LisW data previously reported; cited from earlier work
patients = settings: OCTAVE study, higher than the ACE inhibitor enalapril; cited from earlier work
[9] = 5 μM MCA-RPPGFSAFK(Dnp)-OH substrate

T1 sequence (P12821 643-1222 limits assumed): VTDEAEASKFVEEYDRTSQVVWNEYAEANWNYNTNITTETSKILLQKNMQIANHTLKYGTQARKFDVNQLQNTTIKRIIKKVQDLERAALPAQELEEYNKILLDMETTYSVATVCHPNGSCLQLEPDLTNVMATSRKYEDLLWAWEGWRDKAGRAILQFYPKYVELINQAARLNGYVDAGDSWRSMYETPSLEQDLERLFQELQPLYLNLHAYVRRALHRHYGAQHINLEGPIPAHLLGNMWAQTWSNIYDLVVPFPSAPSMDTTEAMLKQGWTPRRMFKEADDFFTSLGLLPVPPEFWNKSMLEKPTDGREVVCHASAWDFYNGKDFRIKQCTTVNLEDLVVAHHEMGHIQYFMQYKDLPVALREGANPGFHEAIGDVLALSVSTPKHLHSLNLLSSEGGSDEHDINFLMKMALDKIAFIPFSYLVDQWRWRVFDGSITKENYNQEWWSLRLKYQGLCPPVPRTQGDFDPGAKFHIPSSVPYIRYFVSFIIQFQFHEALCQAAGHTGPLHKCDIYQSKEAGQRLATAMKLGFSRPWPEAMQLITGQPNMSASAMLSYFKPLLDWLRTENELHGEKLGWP
T3 sequence (P08473 52-750 limits assumed): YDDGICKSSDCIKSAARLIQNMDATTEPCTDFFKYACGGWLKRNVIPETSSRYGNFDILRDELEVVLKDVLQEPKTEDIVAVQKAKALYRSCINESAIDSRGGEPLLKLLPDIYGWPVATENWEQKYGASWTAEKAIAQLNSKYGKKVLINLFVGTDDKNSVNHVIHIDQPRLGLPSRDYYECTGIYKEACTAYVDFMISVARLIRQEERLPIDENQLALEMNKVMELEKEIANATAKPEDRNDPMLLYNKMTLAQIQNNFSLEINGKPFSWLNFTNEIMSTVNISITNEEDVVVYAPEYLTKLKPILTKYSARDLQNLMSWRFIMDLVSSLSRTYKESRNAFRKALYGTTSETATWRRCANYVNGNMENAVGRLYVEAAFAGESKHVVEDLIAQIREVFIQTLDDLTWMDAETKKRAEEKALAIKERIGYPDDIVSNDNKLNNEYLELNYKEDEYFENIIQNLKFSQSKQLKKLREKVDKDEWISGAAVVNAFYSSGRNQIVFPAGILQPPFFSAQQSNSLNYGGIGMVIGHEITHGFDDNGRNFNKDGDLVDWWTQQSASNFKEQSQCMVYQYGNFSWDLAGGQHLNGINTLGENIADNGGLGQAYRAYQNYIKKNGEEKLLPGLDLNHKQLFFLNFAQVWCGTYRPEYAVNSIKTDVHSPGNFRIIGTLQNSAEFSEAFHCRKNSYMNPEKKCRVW
T2 sequence (P12821 40-624 limits assumed): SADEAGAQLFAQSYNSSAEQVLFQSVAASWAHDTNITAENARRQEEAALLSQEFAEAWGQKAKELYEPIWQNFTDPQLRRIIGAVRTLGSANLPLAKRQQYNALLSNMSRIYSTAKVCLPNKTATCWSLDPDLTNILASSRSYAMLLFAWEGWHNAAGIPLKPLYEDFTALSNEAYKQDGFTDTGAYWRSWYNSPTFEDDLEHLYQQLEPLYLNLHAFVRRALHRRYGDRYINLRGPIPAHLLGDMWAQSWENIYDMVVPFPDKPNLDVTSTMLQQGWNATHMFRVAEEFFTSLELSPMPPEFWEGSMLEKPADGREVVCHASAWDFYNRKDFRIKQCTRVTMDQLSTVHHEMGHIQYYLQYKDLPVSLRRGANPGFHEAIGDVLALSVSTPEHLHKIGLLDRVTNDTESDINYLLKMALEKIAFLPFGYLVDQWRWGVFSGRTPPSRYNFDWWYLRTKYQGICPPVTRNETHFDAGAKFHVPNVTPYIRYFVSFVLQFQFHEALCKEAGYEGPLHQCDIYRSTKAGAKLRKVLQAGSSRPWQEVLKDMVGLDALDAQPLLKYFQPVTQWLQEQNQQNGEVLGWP
T4 sequence (P08473 52-750 limits assumed): as the sequence (P08473 52-750 limits assumed) above

IC50 (cACE [3]) [µM] | Structure (SMILES) | C-selectivity factor (cACE [3]) | IC50 (nACE [4]) [µM] | IC50 (human NEP ectodomain [6]; [9]) [µM] | reduction in affinity for nACE compared to omapatrilat (nACE [4]) | further results
 | NCCCC[C@H](NC(=O)[C@@H](S)Cc1ccccc1)C(=O)N[C@@H](Cc1c[nH]c2ccccc12)C(=O)O [AD016, ((S)-2-Mercapto-3-phenylpropanoyl)-L-lysyl-L-tryptophan] | 21 | 0.15 ± 0.02 | 1.2 ± 0.2 |  | dissociation from cACE on jump dilution (cACE [1]): remains tightly bound; dissociation from nACE on jump dilution (nACE [2]): dissociates from nACE when diluted; mode of inhibition of cACE (cACE [5]): non-competitive; IC50 (human NEP ectodomain [6]; 5 μM MCA-[…](Dnp)-OH substrate): 1 µM; improved NEP inhibitory activity compared to LisW (human NEP ectodomain [6]; ratio of NEP IC50 values, LisW vs compound): over 200 fold; mode of inhibition of nACE (nACE [7]): competitive inhibition; mode of inhibition of NEP (NEP): competitive inhibition
0.0008 ± 0.0002 | Cc1ccc([C@H]2CC[C@@H](C(=O)O)N2C(=O)CNC(=O)[C@@H](S)Cc2ccccc2)cc1 [AD015, (2S,5R)-1-(((S)-2-Mercapto-3-phenylpropanoyl)glycyl)-5-(p-tolyl)pyrrolidine-2-carboxylic Acid] |  | 0.019 ± 0.001 | 0.009 ± 0.003 | 10 | selectivity for NEP over nACE (human NEP ectodomain [6]; from IC50 values): 2 fold
 | NCCCC[C@H](N[C@@H](CCc1ccccc1)C(=O)O)C(=O)N[C@@H](Cc1c[nH]c2ccccc12)C(=O)O [LisW, Lisinopril-tryptophan] |  |  |  |  | Ki (human NEP ectodomain [8]): > 150 µM
 | O=C(NCC(=O)N1[C@@H](c2cccc(O)c2)CC[C@H]1C(=O)O)[C@@H](S)Cc1ccc(O)cc1 [AD014, (2S,5R)-5-(3-Hydroxyphenyl)-1-(((S)-3-(4-hydroxyphenyl)-2-mercaptopropanoyl)glycyl)pyrrolidine-2-carboxylic Acid] | 2 | 0.02 ± 0.007 | 0.02 ± 0.01 | ~10 | reduction in affinity for cACE compared to omapatrilat (cACE [3]; factor, from IC50 values): ~10
0.001 ± 0.0001 | O=C(N[C@H]1CCS[C@H]2CCC[C@@H](C(=O)O)N2C1=O)[C@@H](S)Cc1ccccc1 [Omapatrilat, reference compound] |  | 0.002 ± 0.0001 | 0.01 |  | incidence of angioedema relative to enalapril (patients): 3 fold
